The results in this text go back to PMC5218480 (PLoS ONE, 2017).

The experiment relates to MV-4-11 cells. Nature of the experiment: Gene expression microarray analysis (Affymetrix PrimeView) and GSEA. The class given is cell-based, human. Further details: RFU PODN (11730768_x_at) / Fold change /veh PODN (11730768_x_at) / RFU LINC00158 (11744669_a_at) / Fold change /veh LINC00158 (11744669_a_at) / RFU DUSP10 (11751237_a_at) / Fold change /veh DUSP10 (11751237_a_at) / RFU ID3 (11757404_x_at) / Fold change /veh ID3 (11757404_x_at) / RFU PLEKHG5 (11737974_s_at) / Fold change /veh PLEKHG5 (11737974_s_at) / RFU LRRC4B (11730491_at) / Fold change /veh LRRC4B (11730491_at) / RFU GIMAP4 (11747438_a_at) / Fold change /veh GIMAP4 (11747438_a_at) / RFU KRT8 (11758183_x_at) / Fold change /veh KRT8 (11758183_x_at) / RFU CNN1 (11734310_a_at) / Fold change /veh CNN1 (11734310_a_at) / RFU VPS37D (11726825_at) / Fold change /veh VPS37D (11726825_at) / RFU C10orf10 (11716522_x_at) / Fold change /veh C10orf10 (11716522_x_at) / RFU KIR2DL2 /// KIR2DL4 /// KIR2DL5A /// KIR2DL5B /// KIR2DS1 /// KIR2DS2 /// KIR2DS3 /// KIR2DS4 /// KIR3DL3 /// KIR3DL3 /// KIR3DS1 (11738374_at) / Fold change /veh KIR2DL2 /// KIR2DL4 /// KIR2DL5A /// KIR2DL5B /// KIR2DS1 /// KIR2DS2 /// KIR2DS3 /// KIR2DS4 /// KIR3DL3 /// KIR3DL3 /// KIR3DS1 (11738374_at) / RFU C1QL1 (11718748_at) / Fold change /veh C1QL1 (11718748_at) / RFU TMPRSS4 (11747572_a_at) / Fold change /veh TMPRSS4 (11747572_a_at) / RFU HAMP (11756126_x_at) / Fold change /veh HAMP (11756126_x_at) / RFU RNFT2 (11725882_a_at) / Fold change /veh RNFT2 (11725882_a_at) / RFU NR4A2 (11747474_a_at) / Fold change /veh NR4A2 (11747474_a_at) / RFU ABCC12 (11746883_a_at) / Fold change /veh ABCC12 (11746883_a_at) / RFU TMEM136 (11760407_x_at) / Fold change /veh TMEM136 (11760407_x_at) / RFU CLDN22 /// WWC2 (11732394_at) / Fold change /veh CLDN22 /// WWC2 (11732394_at) / RFU HLA-DPB1 (11760878_x_at) / Fold change /veh HLA-DPB1 (11760878_x_at) / RFU SPINT1 (11716480_a_at) / Fold change /veh SPINT1 (11716480_a_at) / RFU GAP43 (11754022_s_at) / Fold change /veh GAP43 (11754022_s_at) / RFU A4GNT (11735810_at) / Fold change /veh A4GNT (11735810_at) / RFU PRB3 (11715151_x_at) / Fold change /veh PRB3 (11715151_x_at) / RFU TUBB4B (11761932_at) / Fold change /veh TUBB4B (11761932_at) / RFU CAPN14 (11732068_a_at) / Fold change /veh CAPN14 (11732068_a_at) / RFU TMCC2 (11721928_a_at) / Fold change /veh TMCC2 (11721928_a_at) / RFU IRGQ (11745062_a_at) / Fold change /veh IRGQ (11745062_a_at) / RFU FAM174B (11720279_a_at) / Fold change /veh FAM174B (11720279_a_at) / RFU TMPRSS4 (11748680_a_at) / Fold change /veh TMPRSS4 (11748680_a_at) / RFU FAM212B (11763350_a_at) / Fold change /veh FAM212B (11763350_a_at) / RFU PLEKHG5 (11743358_a_at) / Fold change /veh PLEKHG5 (11743358_a_at) / RFU ZSCAN30 (11745921_a_at) / Fold change /veh ZSCAN30 (11745921_a_at) / RFU CMKLR1 (11741424_a_at) / Fold change /veh CMKLR1 (11741424_a_at) / RFU LOC101060620 /// MAPK8IP1 (11723275_at) / Fold change /veh LOC101060620 /// MAPK8IP1 (11723275_at) / RFU SPTSSB (11747773_x_at) / Fold change /veh SPTSSB (11747773_x_at) / RFU PRSS12 (11739890_at) / Fold change /veh PRSS12 (11739890_at) / RFU BIN1 (11741810_x_at) / Fold change /veh BIN1 (11741810_x_at) / RFU WNT11 (11732464_a_at) / Fold change /veh WNT11 (11732464_a_at) / RFU C10orf10 (11716521_a_at) / Fold change /veh C10orf10 (11716521_a_at) / RFU C5orf56 (11738089_at) / Fold change /veh C5orf56 (11738089_at) / RFU CYB561 (11721691_x_at) / Fold change /veh CYB561 (11721691_x_at) / RFU ANKRD19P (11752326_a_at) / Fold change /veh ANKRD19P (11752326_a_at) / RFU OR2T12 /// OR2T33 /// OR2T8 (11738714_s_at) / Fold change /veh OR2T12 /// OR2T33 /// OR2T8 (11738714_s_at) / RFU VCAN (11748164_a_at) / Fold change /veh VCAN (11748164_a_at) / RFU JSRP1 (11732532_at) / Fold change /veh JSRP1 (11732532_at) / RFU KRTAP10-11 (11738290_x_at) / Fold change /veh KRTAP10-11 (11738290_x_at) / RFU MYO3A (11730013_a_at) / Fold change /veh MYO3A (11730013_a_at) / RFU EBF3 (11725865_a_at) / Fold change /veh EBF3 (11725865_a_at) / RFU CAMK2N1 (11719241_x_at) / Fold change /veh CAMK2N1 (11719241_x_at) / RFU C5orf56 (11738088_a_at) / Fold change /veh C5orf56 (11738088_a_at) / RFU OLFML3 (11715873_a_at) / Fold change /veh OLFML3 (11715873_a_at) / RFU LOC100653217 /// NTM (11731650_a_at) / Fold change /veh LOC100653217 /// NTM (11731650_a_at) / RFU MAPK11 (11762145_a_at) / Fold change /veh MAPK11 (11762145_a_at) / RFU FIZ1 (11724087_x_at) / Fold change /veh FIZ1 (11724087_x_at) / RFU OASL (11726364_x_at) / Fold change /veh OASL (11726364_x_at) / RFU SOX15 (11748057_x_at) / Fold change /veh SOX15 (11748057_x_at) / RFU CD79A (11719716_a_at) / Fold change /veh CD79A (11719716_a_at) / RFU HIST1H1D (11736915_at) / Fold change /veh HIST1H1D (11736915_at) / RFU CASKIN2 (11723855_a_at) / Fold change /veh CASKIN2 (11723855_a_at) / RFU LOC730098 (11760151_x_at) / Fold change /veh LOC730098 (11760151_x_at) / RFU OR4N2 (11742367_at) / Fold change /veh OR4N2 (11742367_at) / RFU PRRT2 (11749266_a_at) / Fold change /veh PRRT2 (11749266_a_at) / RFU SNX32 (11753110_a_at) / Fold change /veh SNX32 (11753110_a_at) / RFU CDHR5 (11726645_a_at) / Fold change /veh CDHR5 (11726645_a_at) / RFU RCAN1 (11760418_a_at) / Fold change /veh RCAN1 (11760418_a_at) / RFU FAM167A (11723789_a_at) / Fold change /veh FAM167A (11723789_a_at) / RFU FAM26E (11764081_at) / Fold change /veh FAM26E (11764081_at) / RFU ISYNA1 (11749810_s_at) / Fold change /veh ISYNA1 (11749810_s_at) / RFU ACY1 (11761880_at) / Fold change /veh ACY1 (11761880_at) / RFU 11764098_at / Fold change /veh 11764098_at / RFU SAMD14 (11745864_x_at) / Fold change /veh SAMD14 (11745864_x_at) / RFU NPB (11741838_a_at) / Fold change /veh NPB (11741838_a_at) / RFU TMPRSS6 (11731388_a_at) / Fold change /veh TMPRSS6 (11731388_a_at) / RFU KRTAP10-2 (11738614_at) / Fold change /veh KRTAP10-2 (11738614_at) / RFU ARHGAP8 /// PRR5-ARHGAP8 (11727945_x_at) / Fold change /veh ARHGAP8 /// PRR5-ARHGAP8 (11727945_x_at) / RFU KRTAP5-7 /// NADSYN1 (11734609_at) / Fold change /veh KRTAP5-7 /// NADSYN1 (11734609_at) / RFU RASL12 (11751679_a_at) / Fold change /veh RASL12 (11751679_a_at) / RFU CDKN2B (11736163_a_at) / Fold change /veh CDKN2B (11736163_a_at) / RFU PRF1 (11729649_at) / Fold change /veh PRF1 (11729649_at) / RFU, ZNF638 /// ZNF638-IT1 / Fold change vs veh, ZNF638 /// ZNF638-IT1 / RFU, PANK3 / Fold change vs veh, PANK3 / RFU, SH3YL1 / Fold change vs veh, SH3YL1 / RFU, ZEB2 / Fold change vs veh, ZEB2 / RFU, NRIP1 / Fold change vs veh, NRIP1 / RFU, PTTG1IP / Fold change vs veh, PTTG1IP / RFU, CAPN2 / Fold change vs veh, CAPN2 / RFU, MED14 / Fold change vs veh, MED14 / RFU, SNORA58 / Fold change vs veh, SNORA58 / RFU, C1orf63 / Fold change vs veh, C1orf63 / RFU, LRRFIP1 / Fold change vs veh, LRRFIP1 / RFU, NDUFAF7 / Fold change vs veh, NDUFAF7 / RFU, SLC12A2 / Fold change vs veh, SLC12A2 / RFU, IBTK / Fold change vs veh, IBTK / RFU, ESF1 / Fold change vs veh, ESF1 / Fold change vs veh, TMEM50B / RFU, TAOK1 / Fold change vs veh, TAOK1 / RFU, ACBD3 / Fold change vs veh, ACBD3 / RFU, TMA16 / Fold change vs veh, TMA16 / RFU, RWDD3 / Fold change vs veh, RWDD3 / RFU, BCAT1 / Fold change vs veh, BCAT1 / RFU, EDEM3 / Fold change vs veh, EDEM3 / RFU, TMEM33 / Fold change vs veh, TMEM33 / RFU, WDR75 / Fold change vs veh, WDR75 / RFU, AHCTF1 / Fold change vs veh, AHCTF1 / RFU, TFRC / Fold change vs veh, TFRC / RFU, ZDHHC17 / Fold change vs veh, ZDHHC17 / RFU, NOM1 / Fold change vs veh, NOM1 / RFU, ARL8B / Fold change vs veh, ARL8B / RFU, ZBTB11 / Fold change vs veh, ZBTB11 / RFU, TAMM41 / Fold change vs veh, TAMM41 / RFU, KIAA1704 /// LOC100996395 / Fold change vs veh, KIAA1704 /// LOC100996395 / RFU, ING1 / Fold change vs veh, ING1 / RFU, TRMT61B / Fold change vs veh, TRMT61B / RFU, FUBP3 / Fold change vs veh, FUBP3 / RFU, TP53 / Fold change vs veh, TP53 / RFU, TNKS2 / Fold change vs veh, TNKS2 / RFU, ZFP14 / Fold change vs veh, ZFP14 / RFU, ACTR2 / Fold change vs veh, ACTR2 / RFU, PPP3R1 / Fold change vs veh, PPP3R1 / RFU, PIK3R1 / Fold change vs veh, PIK3R1 / RFU, HNRNPA1 / Fold change vs veh, HNRNPA1 / RFU, RNF170 / Fold change vs veh, RNF170 / RFU, ZNF28 / Fold change vs veh, ZNF28 / RFU, RNGTT / Fold change vs veh, RNGTT / RFU, OGT / Fold change vs veh, OGT / RFU, BRD1 / Fold change vs veh, BRD1 / RFU, MARS / Fold change vs veh, MARS / RFU, ZNF655 / Fold change vs veh, ZNF655 / RFU, FAHD1 / Fold change vs veh, FAHD1 / RFU, BDP1 / Fold change vs veh, BDP1 / RFU, LRRCC1 / Fold change vs veh, LRRCC1 / RFU, ARID1A / Fold change vs veh, ARID1A / RFU, ZNF146 / Fold change vs veh, ZNF146 / RFU, ZNF330 / Fold change vs veh, ZNF330 / RFU, GPN3 / Fold change vs veh, GPN3 / RFU, C9orf123 / Fold change vs veh, C9orf123 / RFU, N4BP2L2 / Fold change vs veh, N4BP2L2 / RFU, ARFIP1 / Fold change vs veh, ARFIP1 / RFU, FAM179B / Fold change vs veh, FAM179B / RFU, BCL10 / Fold change vs veh, BCL10 / RFU, UHRF1BP1L / Fold change vs veh, UHRF1BP1L / RFU, BET1 / Fold change vs veh, BET1 / RFU, CNOT2 / Fold change vs veh, CNOT2 / RFU, ZNF268 / Fold change vs veh, ZNF268 / Fold change vs veh, ZNF507 / RFU, DGCR2 / Fold change vs veh, DGCR2 / RFU, WDSUB1 / Fold change vs veh, WDSUB1 / Fold change vs veh, HSP90B1 /// MIR3652 / RFU, ADSS / Fold change vs veh, ADSS / RFU, GK / Fold change vs veh, GK / RFU, ZNF148 / Fold change vs veh, ZNF148 / RFU, TAF9 / Fold change vs veh, TAF9 / RFU, SLC1A5 / Fold change vs veh, SLC1A5 / RFU, SLMO2 / Fold change vs veh, SLMO2 / RFU, ABCC4 / Fold change vs veh, ABCC4 / RFU, LOC101060439 /// RAP1B / Fold change vs veh, LOC101060439 /// RAP1B / RFU, RFX7 / Fold change vs veh, RFX7 / RFU, GTPBP10 / Fold change vs veh, GTPBP10 / RFU, CNEP1R1 / Fold change vs veh, CNEP1R1 / RFU, BIVM-ERCC5 /// ERCC5 / Fold change vs veh, BIVM-ERCC5 /// ERCC5 / RFU, ILF3 / Fold change vs veh, ILF3 / RFU 11762660_at / Fold change /veh 11762660_at / RFU VCAN (11757783_s_at) / Fold change /veh VCAN (11757783_s_at) / RFU DDX43 (11728927_at) / Fold change /veh DDX43 (11728927_at) / RFU KRT8 (11758188_x_at) / Fold change /veh KRT8 (11758188_x_at) / RFU NKD1 (11759106_at) / Fold change /veh NKD1 (11759106_at) / RFU SRD5A1 (11742802_a_at) / Fold change /veh SRD5A1 (11742802_a_at) / RFU TPSAB1 /// TPSB2 (11721975_s_at) / Fold change /veh TPSAB1 /// TPSB2 (11721975_s_at) / RFU GSTM3 (11746129_a_at) / Fold change /veh GSTM3 (11746129_a_at) / RFU IL23R (11737362_x_at) / Fold change /veh IL23R (11737362_x_at) / RFU TMEM51 (11727254_a_at) / Fold change /veh TMEM51 (11727254_a_at) / RFU PIWIL2 (11732686_x_at) / Fold change /veh PIWIL2 (11732686_x_at) / RFU ORM1 (11744905_x_at) / Fold change /veh ORM1 (11744905_x_at) / RFU CCDC152 (11743942_at) / Fold change /veh CCDC152 (11743942_at) / RFU ECM1 (11717891_a_at) / Fold change /veh ECM1 (11717891_a_at) / RFU IL23R (11748794_a_at) / Fold change /veh IL23R (11748794_a_at) / RFU TNFAIP8L3 (11732012_x_at) / Fold change /veh TNFAIP8L3 (11732012_x_at) / RFU MBOAT4 (11741988_at) / Fold change /veh MBOAT4 (11741988_at) / RFU 11764193_at / Fold change /veh 11764193_at / RFU TMEM53 (11763286_at) / Fold change /veh TMEM53 (11763286_at) / RFU MAGEB2 (11727129_at) / Fold change /veh MAGEB2 (11727129_at) / RFU TMEM200A (11744735_a_at) / Fold change /veh TMEM200A (11744735_a_at) / RFU CCDC152 (11751479_a_at) / Fold change /veh CCDC152 (11751479_a_at) / RFU FAM211A (11726209_a_at) / Fold change /veh FAM211A (11726209_a_at) / RFU RGS16 (11746705_a_at) / Fold change /veh RGS16 (11746705_a_at) / RFU VCAN (11755009_s_at) / Fold change /veh VCAN (11755009_s_at) / RFU RHOB (11743442_s_at) / Fold change /veh RHOB (11743442_s_at) / RFU RGS16 (11720943_a_at) / Fold change /veh RGS16 (11720943_a_at) / RFU RGS16 (11720944_at) / Fold change /veh RGS16 (11720944_at) / RFU, VPS4B / Fold change vs veh, VPS4B / RFU, CREB1 / Fold change vs veh, CREB1 / RFU, DNAJC13 / Fold change vs veh, DNAJC13 / RFU, GNAQ / Fold change vs veh, GNAQ / RFU, CDK5R1 / Fold change vs veh, CDK5R1 / RFU, ZRANB3 / Fold change vs veh, ZRANB3 / RFU, CUL4A / Fold change vs veh, CUL4A / RFU, CCNY / Fold change vs veh, CCNY / RFU, UFL1 / Fold change vs veh, UFL1 / RFU, COG3 / Fold change vs veh, COG3 / RFU, DIAPH2 / Fold change vs veh, DIAPH2 / RFU, SKA2 / Fold change vs veh, SKA2 / RFU, AFF3 / Fold change vs veh, AFF3 / RFU, LMF1 / Fold change vs veh, LMF1 / RFU, IPO11 / Fold change vs veh, IPO11 / RFU, DFFB / Fold change vs veh, DFFB / RFU, FOXP1 / Fold change vs veh, FOXP1 / RFU, CARD8 / Fold change vs veh, CARD8 / RFU, STRN3 / Fold change vs veh, STRN3 / RFU, ADK / Fold change vs veh, ADK / RFU, RASSF2 / Fold change vs veh, RASSF2 / RFU, WIPF1 / Fold change vs veh, WIPF1 / RFU, LARP1B / Fold change vs veh, LARP1B / RFU, RASA1 / Fold change vs veh, RASA1 / RFU, RB1 / Fold change vs veh, RB1 / RFU, PPFIA1 / Fold change vs veh, PPFIA1 / RFU, MAT2A / Fold change vs veh, MAT2A / RFU, CCT5 / Fold change vs veh, CCT5 / RFU, WDR92 / Fold change vs veh, WDR92 / RFU, CUX1 / Fold change vs veh, CUX1 / RFU, TTC7A / Fold change vs veh, TTC7A / RFU, TMEM135 / Fold change vs veh, TMEM135 / RFU, DEPTOR / Fold change vs veh, DEPTOR / RFU, CPM / Fold change vs veh, CPM / RFU, DNAJB6 / Fold change vs veh, DNAJB6 / RFU, CACNA2D3 / Fold change vs veh, CACNA2D3 / RFU, DTX4 / Fold change vs veh, DTX4 / RFU, TFCP2 / Fold change vs veh, TFCP2 / RFU, GMCL1 /// GMCL1P1 / Fold change vs veh, GMCL1 /// GMCL1P1 / RFU, AEBP2 / Fold change vs veh, AEBP2 / RFU, SNHG1 /// SNORD22 /// SNORD25 /// SNORD26 /// SNORD27 /// SNORD28 /// SNORD29 /// SNORD31 / Fold change vs veh, SNHG1 /// SNORD22 /// SNORD25 /// SNORD26 /// SNORD27 /// SNORD28 /// SNORD29 /// SNORD31 / Fold change (Aza/veh), C12orf56 (ProbeSet 11735607_a_at) / Fold change (ACY-1035/veh), C12orf56 (ProbeSet 11735607_a_at) / Fold change (Aza/veh), FGFR1OP (ProbeSet 11751329_s_at) / Fold change (ACY-1035/veh), FGFR1OP (ProbeSet 11751329_s_at) / Fold change (Aza/veh), VPS36 (ProbeSet 11739960_a_at) / Fold change (ACY-1035/veh), VPS36 (ProbeSet 11739960_a_at) / RFU SYPL1 (11715823_x_at) / Fold change /veh SYPL1 (11715823_x_at) / RFU IGFBP7 (11715501_s_at) / Fold change /veh IGFBP7 (11715501_s_at) / RFU REEP3 (11722064_at) / Fold change /veh REEP3 (11722064_at) / RFU IGLL1 (11728026_x_at) / Fold change /veh IGLL1 (11728026_x_at): dose or concentration left out as unconfirmed. The conditions noted are these: ProbeSet 11745789_a_at; LIST D.

Turning to `Nc1ncn([C@@H]2O[C@H](CO)[C@@H](O)[C@H]2O)c(=O)n1` [azacitidine], the “RFU, TMEM135” value came to 108.05 RFU.
